Reference: a melting point compilation (Tetko et al.; mined from patent text by program, amines drawn as free bases though some values may be those of a salt)

| Structure (SMILES) | melting point [°C] |
| --- | --- |
| O=C1NC(=O)C(Br)(c2ccc(Oc3ccccc3)cc2)C(=O)N1 | 125 to 127 |
| CCOC(=O)OC1=C(c2c(C)cc(C)cc2C)C(=O)NC1C1CCN(OC)CC1 (configuration not stated) | 154 to 155 |
| Cc1cc(Br)c(S(C)(=O)=O)cc1C(=O)N=C(N)N | 207 to 208 |
| CNC(=C[N+](=O)[O-])NCCCSc1nc(C)co1 | 92 to 93 |
| Cc1cc(-c2cn(-c3cccc(OCCn4ccnc4)c3)c3ncnc(N)c23)ccc1OCc1ccccc1 | 158 to 160 |
| Nc1cccc(NC(=O)NCCCOc2cccc(CN3CCCCC3)c2)c1 | 116 to 118 |
| CC(C)(S)C(N)P(C)(=O)O (configuration not stated) | 221 |
| CCc1nc2c(cnn2CC)c(NC2CCOCC2)c1CNC(=O)c1cccc(C(=O)NCc2cc(Cl)cc(-c3cccc(CN4CCNC(C)C4)c3)c2)c1 (configuration not stated) | 119 to 121 |
| Cc1ccc(N2C(=O)C(O)=C(C(=O)c3ccc(C(C)C)cc3)C2c2ccc(C(F)(F)F)cc2)nn1 (configuration not stated) | 252 |
| CCOC(=O)N1CCn2c(nc(-c3ccncc3)cc2=O)C(NC(=O)c2ccc3c(c2)CNCC3)C1 (racemic) | 258 to 260 |
| NCCc1c[nH]c2ccc(C(N)=O)cc12 | 173 to 176 |
| CCCOc1ccc2c(c1)C(=O)C=C2c1ccc2c(c1)OCO2 | 90 to 93 |
| COc1ccc(CCOc2c(-c3ccc(S(C)(=O)=O)cc3)cnn(CC(F)(F)F)c2=O)cc1OC | 133 to 134 |
| O=C(OCc1ccncc1)c1cc2c(=O)n(Cc3ccccc3)c(=O)[nH]c2s1 | 248 to 250 |
| Cc1c(-c2cccnc2)n(CCCC=CC(=O)O)c2ccccc12 | 145 to 147 |
| CC(COc1ccc(O)c(C(N)=O)c1)NCc1ccccc1 (configuration not stated) | 102 to 104 |
| O=Cc1c[nH]cc1-c1ccccc1Cl | 147 to 148 |
| CC(C)(C)c1ccc(C2=NC[C@@H](O)[C@H](c3ccccc3)O2)cc1 (racemic) | 50 |
| CCCCOc1c(NCCCBr)c(=O)c1=O | 56 to 57 |

| Structure (SMILES) | melting point [°C] |
| --- | --- |
| Nc1ncnc2c1ncn2[C@@H]1C[C@H](O)[C@@H](O)[C@H]1O (racemic) | 282 |
| CN1CCN(C(=S)C2(c3ccccn3)CCCS2)CC1 (configuration not stated) | 124 |
| CCn1cc(-c2coc3ccc(-c4nnc(C)o4)cc23)cn1 | 122 to 123 |
| N#Cc1ccc2cc3c4c(cccc4c2c1)C(=O)OC3=O | > 320 |
| Cc1ccc(-c2noc(CC(F)=C(F)F)n2)cc1 | 46 to 50 |
| CCOc1ccc(-c2nc3c4ccccc4ccc3n2C)cc1 | 138 to 139 |
| CC#CCOc1ccc(S(=O)(=O)C2(C(=O)O)CCOCC2)cc1 | 197 |
| C[C@]1(COc2ccc(N3CCC(Cc4cccc(OC(F)(F)F)c4)CC3)cc2)Cn2cc([N+](=O)[O-])nc2O1 | 187 to 190 |
| Oc1nnc(O)c2c1CCCC2 | 298 to 300 |
| COc1ccc(C(=Cc2cc(OC)c(OC)cc2[N+](=O)[O-])C(=O)N2CCCC2C(=O)O)cc1 (configuration not stated) | 120 to 122 |
| CC(CC(=O)O)C(=O)c1ccc(-n2ccc(=O)cc2)cc1 (configuration not stated) | 250 to 252 |
| CC(=O)CS(=O)(=O)c1ccc(O)cc1 | 118 to 121 |
| CC1=C(C(=O)OC(C)(C)C)C(c2ccc(C)cc2C)C(C(=O)OC(C)(C)C)=C(C)N1 | 197 to 198 |
| O=C1c2ccc([N+](=O)[O-])cc2C2(c3ccccc3)NCCN12 (configuration not stated) | 203 |
| CCc1ccc(-c2cccc(-c3ccnc4c(C(=O)c5cccs5)cnn34)c2)cc1 | 117 to 119 |
| O=C(Nc1ccc(F)c(C(F)(F)F)c1)c1cccc2cc(OS(=O)(=O)C(F)(F)F)ccc12 | 171 to 172 |
| CC1=NCCSC1=NOC(=O)N(C)C | 64 to 65 |
| CCOCc1ncccc1CN(CCn1ccc2oc(C)cc2c1=O)Cc1ccc2c(c1)N(C)C(=O)C(C)(C)C(=O)N2CC | 104 to 106 |
| Oc1ccc(OCC(O)CNC2CCN(c3ccc(Cl)cn3)CC2)cc1 (configuration not stated) | 148 to 150 |

| Structure (SMILES) | melting point [°C] |
| --- | --- |
| CN(C)S(=O)(=O)c1ccc2c(c1)C(=O)c1ccccc1CC2 | 122 to 124 |
| CC(C)OC(=O)c1cc(-c2nn(C)c(C(F)(F)F)c2CF)c(F)cc1Cl | 74 |
| COc1ccc(CCl)cc1OC | 50 to 51 |
| Cn1nc(-c2cc([N+](=O)[O-])c(Cl)cc2F)c(Cl)c1S(C)=O (configuration not stated) | 151 |
| CN(c1ccc(F)c(C(F)(F)F)c1)c1nccc(-c2ccc(F)c(C(F)(F)F)c2)n1 | 83 to 84 |
| O=C(NC1CCCC1)c1ccc(F)c2c1CC(N(CCCc1c[nH]c3ccc(F)cc13)C1CCC1)CO2 (configuration not stated) | 133 |
| CCCc1nc2c(N)nc(C)c(C)c2n1CC(C)(C)NS(C)(=O)=O | 85 to 93 |
| COC(=O)CCCc1ccc(CN2CCN(c3ccncc3)CC2)cc1 | 126 to 127 |
| FC(F)(F)c1nc(-c2ccccc2)c(-c2ccccc2)s1 | 94 to 97 |
| CC(C)(C)NC(=O)N1C(=O)C(C(=O)c2cccs2)c2ccc(Cl)cc21 (configuration not stated) | 160 to 162 |
| O=C(O)c1cc(SCc2ccsc2)c(-c2ccccc2)c([N+](=O)[O-])c1 | 159 to 161 |
| CCCCCCCCC(O)CNCCCNCC(O)CCCCCCCC (configuration not stated) | 104 to 108 |
| CCCCCCNC(=O)NC1CCCc2sccc21 (configuration not stated) | 122 to 124 |
| CCNc1cccc(-c2ccnc3c(C(=O)c4ccco4)cnn23)c1 | 142 to 143 |
| Cc1ccc(NC(=O)c2cccc(C(F)(F)F)c2)cc1-c1ccc2scnc2c1 | 90 to 93 |
| CC(=O)c1ccc2c(c1)CCS2(=O)=O | 54 to 56 |
| COc1cc2c(Nc3ccc4cn[nH]c4c3)c(C#N)cnc2c(OC)c1OC | 243 to 245 |
| CC(C=CC=C(C)CCCC(C)CCCC(C)C)=CC(=O)O (configuration not stated) | 84.5 to 85.5 |

Other lines, results leading:

| melting point [°C] | Structure (SMILES) |
| --- | --- |
| 203 to 206 | O=C(N[C@@H](Cc1c[nH]cn1)C(=O)OCCc1cccs1)C(Cc1cccc2ccccc12)Cc1cccc2ccccc12 |
| 48 to 50 | CCCc1c(OCCOCCC(=O)OC)ccc(C(C)=O)c1O |
| 259 | N#Cc1sc(N)c(C#N)c1Cl |
| 75 to 76 | Cc1ccc([S@@](C)=O)cc1 |
| 237 to 238 | COc1cc(C=CC(=O)Nc2cnc3ccccc3c2-c2ccccc2Cl)cc(OC)c1OC(C)=O |
| 146 to 147 | ClCc1c2ccccc2c(Cc2ccccc2)c2ccccc12 |
| 74 to 78 | CC1(C)CC(O)CC(C)(C)N1OC1CCCCC1 |
| 77 to 81 | Cc1csc(C(=O)C(F)(F)F)n1 |
| 59 to 61 | CCOC(=O)C(C)(Cc1ccc([N+](=O)[O-])cc1)C(=O)OCC |
| 160 to 165 | O=C(O)c1cc(-c2ccc3c(c2)CCO3)nn(CC2CC2)c1=O |
| 244 to 247 | O=C(O)c1cnn(-c2ccc(F)cc2)c1 |
| 113 to 115 | COc1ccc(S(=O)(=O)C2(CCCC#Cc3ccc(Cl)cc3)SC(=O)N(C)C2=O)cc1 (configuration not stated) |
| 142 to 146 | Cc1nc(N2CCc3ccccc3CC2)c(C#N)c(=O)n1NC(C)C |
| 158 | COC(=O)c1cc(C(=O)c2c(C)c(N(C)C(=O)c3cccc(OC)c3)c3ccccn23)ccc1[N+](=O)[O-] |
| 92 to 95 | CCOC(=O)c1cc2ccccc2n1S(=O)(=O)c1ccc(C)cc1 |
| 40 to 45 | CCN(CC)CCNC(=O)c1cnc(-c2ccccc2)nc1Cl |
| 170 to 173 | COc1ccc(CNc2nc(N3CCCC3CO)nnc2C(=O)NCc2ncccn2)cc1Cl (configuration not stated) |
| 232 to 233 | CC(C)(N)c1ccc(-c2nc(Nc3ccc(-n4ccnc4)cc3)ncc2C#N)cc1 |
| 88 to 89 | CC(C)Oc1ccc(CCCOc2cc(CCC(=O)O)n(C)n2)c(Oc2ncc(C(F)(F)F)cc2Cl)c1 |
| 278 to 282 | Cc1cc2c(=O)[nH][nH]c(=O)c2n1CC(C)C |
| 122 to 124 | OCC1Oc2cccc(F)c2OC1CO (configuration not stated) |
| 99 to 100 | COc1ccc(C2=NN(CCc3ccccc3)C(=O)[C@H]3CCCC[C@@H]23)cc1OC (relative stereo) |
| 89 to 91 | Clc1c2c(nc3ccc(C4CCCCC4)cc13)CCCC2 |

| melting point [°C] | Structure (SMILES) |
| --- | --- |
| 155 to 157 | COc1cc(N2C(=O)N3CCCCC3C2O)c(F)cc1Cl (configuration not stated) |
| 129 to 130 | CC1CN(c2cc3c(c(NCc4ccccc4)c2F)c(=O)c(C(=O)O)cn3C2CC2)CCN1 (configuration not stated) |
| 133 to 134 | CCOc1nn(Cc2ccc(OCc3nc(-c4ccccc4)oc3C)cn2)cc1CCC(=O)O |
| 146 to 147 | O=C1N(Cc2ccccn2)c2cccnc2C12COc1cc3c(cc12)OCCO3 (configuration not stated) |
| 76 to 78 | N#CSCC(I)=C(I)CCl |
| 111 to 113 | O=[N+]([O-])c1ccc(-c2ccc(C(O)CCl)o2)cc1 (configuration not stated) |
| 77 to 78 | Cc1nc(Cl)sc1C=O |
| 147 | COc1ccc(C2=NN(Cc3ccc(C(=O)NC4CCCC4)cc3)C(=O)CC2)cc1OC |
| 183 to 184 | NC(=S)Nc1ccccc1-c1ccccc1 |
| 250 to 253 | NCc1cccc(C2CCN(c3cc4c(cc3F)c(=O)c(C(=O)O)cn4C3CC3)C2)c1 (configuration not stated) |
| 132 to 134 | N#Cc1ccc(NCCO)c([N+](=O)[O-])c1 |
| 118 | COP(=O)(OC)C(O)=Cc1ccc2c(c1)C(=O)Cc1ccccc1O2 |
| 174 to 176 | Cc1ccc(C=CC(=O)C=Cc2ccc(C)cc2)cc1 |
| 215 to 217 | OC1OC(Cn2cncn2)(c2ccc(Cl)cc2)c2ccccc21 (configuration not stated) |
| 184 to 185 | O=C1Nc2cccc(-c3ccccc3)c2/C1=C/c1ccc[nH]1 |
| 128 to 133 | O=C(c1ccccc1)c1ccc2nc(-c3ccc[nH]3)[nH]c2c1 |
| 103 to 106 | CCNC(=O)c1cnn(C)c1 |
| 138 to 142 | CCOC(=O)c1cnc2c(NC(=O)c3c(Cl)cccc3Cl)cccc2c1COC(C)=O |
| 185 to 186 | Cc1nn(-c2c(Cl)cc(C(F)(F)F)cc2Cl)nc1C(=O)O |
| 236 to 238 | Clc1ccc(Nc2nc3ccccc3c3[nH]c(C4CCCCCC4)nc23)cc1Cl |
| 61 to 62 | CC(C)NNC(=O)OCc1ccccc1 |
| 215 | CC1CN(C(=O)C(Cl)Cl)C(C)CN1C(=O)C(Cl)Cl (configuration not stated) |
| 138 to 140 | Cc1ccccc1Nc1c(C(=O)C(C)C)cnc2c(OCCO)cccc12 |
